In US10806793B2, “Mucosal delivery of therapeutic molecules, proteins, or particles coupled to ceramide lipids” (Children's Medical Center Corporation, priority 2008, dated 2020):

Assays:
[1] = Orskov et al., 1993; cited from earlier work
[2] = system: C12-GM1 transport to the TGN; test: Brefeldin effect on C12-GM1 transport; assay type: cell-based

Compound | potency in vivo [1] | effect on C12-GM1 transport to the TGN [2]
GLP1(7-37): secreted form of GLP1 that contains a C-terminal Gly residue | equally potent | –
GLP1(7-36)amide: secreted form of GLP1 in which the carboxylic acid of Arg at position 36 has been amidated | equally potent | –
C[C@H]1CCC/C=C/[C@@H]2C[C@H](O)C[C@H]2[C@H](O)/C=C/C(=O)O1 [Brefeldin-1] | – | inhibits C12-GM1 transport to the TGN
